Results: article PMC9920998, “Synthesis of Oleanolic Acid-Dithiocarbamate Conjugates and Evaluation of Their Broad-Spectrum Antitumor Activities” (Molecules, 2023)

Experiments:
Assay type in all cases: cell-based
[1] = system: HT-29 cells (human colon cancer); assay: MTT cytotoxicity assay, HT-29; conditions: HT-29, MTT, 48 h exposure
Protocol: (§1) Having obtained a series of structurally diverse OA-dithiocarbamates, we next performed a systematic biological evaluation to examine whether introducing an extra dithiocarbamate group could improve antitumor activities. These compounds were evaluated by MTT assay against human pancreatic cancer (Panc1), human lung cancer (A549), human hepatoma cell (Hep3B), human hepatoma cell (Huh-7), human colon cancer (HT-29), and human cervical cancer (Hela) cells, with the widely used anticancer drugs fluorouracil, docetaxel, and cisplatin as positive controls (Table 2). […] Moreover, the cytotoxicities of compounds 3a-3t were also evaluated in human normal hepatocytes (LO2) to determine whether these compounds preferred killing tumor cells over normal cells.
(§2) The optical density at 490 nm of each well was measured using a microplate reader (Molecular devices corporation, Sunnyvale, CA. USA) to calculate the percent of cell viability. The inhibition rates were calculated using GraphPad Prism 7.0 software. The seven tested cell lines were obtained from the laboratory of Molecular Pharmacology, Department of Pharmacology, School of Pharmacy, Southwest Medical University.
(§3) The in vitro cytotoxic activities of the compounds were evaluated by MTT assay against Panc1, A549, Hep3B, Huh-7, HT-29, Hela, LO2. Cell lines were obtained from the Laboratory of Molecular Pharmacology, Southwest Medical University. Briefly, different tumor cells grew in DMEM medium except for A549, which used 1640 medium. Cells ((3–5) × 10^3 cells/well) were harvested at the log phase of growth and seeded in 96-well plates. After 24 h incubation at 37 °C in 5% CO2 to allow cell attachment, cultures were exposed to various concentrations of the isolated compounds for 48 h. Finally, the MTT solution was added. Plates were further incubated for 4 h at 37 °C after adding 150 µL/well of DMSO and shaking for 10 min on the shaker platform. The plates were read in a 96-well plate reader at 490 nm wavelength. The results were expressed as IC50 values, and were defined as the concentration at which 50% survival of cells was obtained. Fluorouracil, docetaxel, and cisplatin were co-assayed as positive controls.

[2] = system: LO2 cells (human normal hepatocytes); assay: MTT cytotoxicity assay, LO2 normal cells
Protocol: as §1, §2, §3

[3] = system: Panc1 cells (human pancreatic cancer); assay: MTT cytotoxicity assay, Panc1
Protocol: as §1, §2, §3

[4] = system: Hela cells (human cervical cancer); assay: MTT cytotoxicity assay, Hela; conditions: 48 h exposure
Protocol: as §1, §2, §3

[5] = system: A549 cells (human lung cancer); assay: MTT cytotoxicity assay, A549; conditions: 48 h exposure
Protocol: as §1, §2, §3

[6] = system: Huh-7 cells (human hepatoma cell); assay: MTT cytotoxicity assay, Huh-7; conditions: Huh-7, MTT, 48 h exposure
Protocol: as §1, §2, §3

[7] = system: Hep3B cells (human hepatoma cell); assay: MTT cytotoxicity assay, Hep3B; conditions: 48 h exposure
Protocol: as §1, §2, §3

[8] = Homo sapiens, PANC-1, 48 h exposure

Row | Compound | IC50 ([1]; Homo sapiens) [µM] | IC50 ([2]; L02, 48 h exposure) [µM] | IC50 [3, 8] [µM] | IC50 ([4]; Homo sapiens) [µM] | IC50 ([5]; Homo sapiens) [µM] | IC50 ([6]; Homo sapiens) [µM] | IC50 ([7]; Homo sapiens) [µM] | IC50 [1] [µM] | IC50 ([2]; 48 h exposure) [µM] | IC50 ([3]; 48 h exposure) [µM] | IC50 [4] [µM] | IC50 [5] [µM] | IC50 [6] [µM] | IC50 [7] [µM]
1 | CC1(C)CC[C@]2(C(=O)O)CC[C@]3(C)C(=CC[C@@H]4[C@@]5(C)CC[C@H](O)C(C)(C)[C@@H]5CC[C@]43C)[C@@H]2C1 [OA, oleanolic acid] | > 200 | 140 | > 200 | > 200 | > 200 | > 200 | > 200 | – | – | – | – | – | – | –
2 | O=c1[nH]cc(F)c(=O)[nH]1 [5-fluorouracil] | 93.3 | 109 | 160 | 130 | 125 | 140 | 152 | – | – | – | – | – | – | –
3 | N.N.[Cl][Pt][Cl] [Cisplatin] | – | – | – | – | – | – | – | > 200 | > 200 | > 200 | 142 | > 200 | > 200 | > 200
4 | CC(=O)O[C@@]12CO[C@@H]1C[C@H](O)[C@@]1(C)C(=O)[C@H](O)C3=C(C)[C@@H](OC(=O)[C@H](O)[C@@H](NC(=O)OC(C)(C)C)c4ccccc4)C[C@@](O)([C@@H](OC(=O)c4ccccc4)[C@H]21)C3(C)C [Docetaxel] | > 200 | 140 | > 200 | 135 | > 200 | 104 | 172 | – | – | – | – | – | – | –
5 | CC1(C)CC[C@]2(C(=O)OCCSC(=S)N3CCCC3)CC[C@]3(C)C(=CC[C@@H]4[C@@]5(C)CC[C@H](O)C(C)(C)[C@@H]5CC[C@]43C)[C@@H]2C1 [3a, [2-((pyrrolidine-1-carbonothioyl)thio)ethyl] 3-hydroxy-12-en-28-oic acid] | – | 113 | > 200 | 89.4 | 92.1 | 145 | > 200 | – | – | – | – | – | – | –
